Consider 2 compounds from patent US7842683B2, “Neurotherapeutic compositions and method” (Revaax Pharmaceuticals, LLC, priority 1999, dated 2010).

Data set [1] has as its system male golden hamsters. The experiment in a line: Resident/intruder paradigm of offensive aggression. Type of data set: in vivo, Syrian golden hamsters (Mesocricetus auratus). On the procedure: Male Syrian golden hamsters (Mesocricetus auratus) (140-150 g) obtained from Harlan Sprague-Dawley Laboratories (Indianapolis, Ind.) were housed individually in Plexiglas cages (24 cm×24 cm×20 cm), maintained on a reverse light:dark cycle (14L:10D; lights on at 19:00 hr) and provided food and water ad libitum. Animals were acclimated to the reverse light:dark cycle for at least two weeks before testing. All behavioral tests were conducted during the dark phase of the circadian cycle. All animals were acquired and cared for in accordance with the guidelines published in the Guide for the Care and Use of Laboratory Animals (National Institutes of Health Publications No. 85-23, Revised 1985).
(§1) Agonistic behavior can be classified as either offensive or defensive aggression (Blanchard and Blanchard, 1977; Adams, […]; Albert and Walsh, 1984). Offensive aggression is characterized by the aggressor initiating an attack on an opponent, while defensive aggression lacks active approach. Both types of aggression have their own unique neurobehavioral systems. The stimuli that elicit offensive and defense attack are different, as are the sequences of behaviors that accompany each agonistic response. […] Offensive aggression is easily studied using male golden hamsters tested in a resident/intruder paradigm, an established model of offensive aggression (Ferris and Potegal 1988). Placing an unfamiliar male hamster into the home cage of another male hamster elicits a well-defined sequence of agonistic behaviors from the resident that includes offensive aggression.
Hamsters are nocturnal and as such all behavioral tests were performed during the first four hrs of the dark phase under dim red illumination. The resident was scored for offensive aggression, e.g., latency to bite the intruder, the total number of bites, total contact time with the intruder and flank marking over a 10 min test period (Ferris and Potegal, 1988). Flank marking is a form of olfactory communication in which a hamsters arches its back and rubs pheromone producing flank glands against objects in the environment (Johnson, 1986).
Parametric data, i.e., latencies and contact time, were analyzed with a one-way ANOVA followed by Newman-Keuls post hoc tests. Non parametric data, i.e., number of bites and flank marks, were analyzed with Kruskal-Wallis tests followed by Mann-Whitney U tests to determine differences between groups. Two sample comparisons were analyzed with paired and unpaired t-Tests for parametric data and Wilcoxon and Mann-Whitney Tests for paired and unpaired non-parametric data, respectively.
as §1, with “by an” for “by the”, “an opponent; while,” for “an opponent, while”, “Potegal 1988) in the context of defending the home burrow.” for “Potegal 1988).”
Hamsters are nocturnal and as such all behavioral tests were performed during the first four hrs of the dark phase under dim red illumination. The resident was scored for offensive aggression, e.g., latency to bite the intruder, the total number of bites, total contact time with the intruder and flank marking over a 10 min test period (Ferris and Potegal, 1988). […]

Data set [2] has as its system hamsters. The experiment in a line: Olfactory discrimination: latency to find hidden sunflower seeds. To be noted: 1 mg/kg intracerebroventricular, sixty min, five min observation. Type of data set: in vivo, Syrian golden hamsters (Mesocricetus auratus). On the procedure:
Sixteen animals were treated with vehicle or 50 μg/kg Mox and tested for olfactory discrimination by measuring their latency to find hidden sunflower seeds (FIG. 5). The injections were counterbalanced with each animal receiving each treatment. Prior to testing animals were fasted for 24 hrs. Ninety minutes after injection animals were briefly taken from their home cage while six sunflower seeds were buried under the bedding in one corner. Animals were placed back into their home cage and scored for the latency to find the seeds in a ten min observation period. […] In fact, not one of the sixteen animals consumed all of the seeds following saline as compared to all animals treated with Mox.
Six animals received an intracerebroventricular injection of vehicle or 1 mg/kg PPP and tested for olfactory discrimination by measuring their latency to find hidden sunflower seeds (FIG. 16). The injections were counterbalanced with each animal receiving each treatment. Prior to testing animals were fasted for 24 hrs. Sixty min. After injection animals were briefly taken from their home cage while six sunflower seeds were buried under the bedding in one corner. Animals were placed back into their home cage and scored for the latency to find the seeds in a five min. Observation period.

Data set [3] is described as follows: Estimated fluid and brain concentrations after dosing hamsters. Type of data set: in vivo, hamster. On the procedure:
The adult male hamsters used in these studies weighed around 125 g. […] CLAV has a volume of distribution approximating the extracellular fluid volume. The extracellular water content of lean body mass is approximately 22%.
(§2) To this end, animals were treated with N-acetyl-beta-aspartyl-glutamic acid (beta-NAAG), a competitive inhibitor of NAALADase (Serval et al., 1992) and tested in the seed finding model of anxiety. The study was similar to that outlined in Section I with one notable exception. […] Beta-NAAG (FW 304) was given in a dose of 3 ng in a volume of 1 μl saline ICV. The average adult hamster brain weights ca. 1.2 g of which 22% is extracellular fluid.

Data set [4] concerns golden hamsters. The experiment in a line: Seed finding model of anxiety. The format is in vivo, Syrian golden hamsters (Mesocricetus auratus).
From the text: Clavulanic acid (CLAV) is structurally similar to the beta-lactam antibiotics. A most robust and simple bioassay for screening beta-lactams for CNS activity is the golden hamster seed finding model of anxiety. Briefly, hamsters are deprived of food overnight. The following day they are exposed to the additional stress of being taken from their home cage and placed in a novel environment for a few minutes. This manipulation stimulates the release of the stress hormone cortisol (FIG. 37). During their absence from the home cage, sunflower seeds are hidden under the bedding in one of the corners. When returned to the home cage, hamsters routinely scramble along the walls for 1-2 min before settling down, locating and eating the seeds. However, animals treated with the benzodiazepine anxiolytic chlordiazepoxide find seeds in less than 10 sec.
Male, Syrian golden hamsters (Mesocricetus auratus) (120-130 g) obtained from Harlan Sprague-Dawley Laboratories (Indianapolis, Ind.) were housed individually in Plexiglas cages (24 cm×24 cm×20 cm), maintained on a reverse light:dark cycle (14L:10D; lights on at 19:00 hr) and provided food and water ad libitum. A range of concentrations of CLAV (saline vehicle, 0.1, 1.0, 10, 100 1,000 ng/kg) were tested in six groups of hamsters (4-8/group)(FIG. 25). All tests were conducted during the dark phase of the circadian cycle under dim red illumination. Prior to testing all animals were fasted for 20-24 hrs. Ninety min after intraperitoneal (IP) injection of drug, animals were taken from their home cage and placed into a holding cage for 2 min. During their absence, six sunflower seeds were buried under the bedding in one corner of their home cage. Animals were placed back into their home cage randomly facing any one of the empty corners and timed for their latency to find the seeds in a five min observation period. Latency times were analyzed with a one-way ANOVA followed by Scheffe's post hoc tests. Assumption of equal variances was tested (Hartley's F-max=2.1 p>0.05)
as §2, with “It was hypothesized that CLAV functioned as an anxiolytic in the seed finding assay by blocking NAALADase activity in the brain. If this notion were true then it would be predicted that drugs known to block NAALADase should also enhance seed finding. To” for “To”, “fluid. The estimated beta-NAAG concentration was 11 ng/ml or 36 nM.” for “fluid.”
Two groups of six animals each were fasted overnight as previously described and tested the following day. One group was treated with beta-NAAG and the other saline vehicle and one hr later timed for latency to find the hidden sunflower seeds. A Student t-test for unpaired data was used for statistical comparisons.

For data set [5] the following is noted: in vivo; cited from earlier work.

Regarding Ala-D-γ-Glu-Lys-D-Ala-D-Ala [PPP], in data set [1] (ca. 1 mg/kg ICV), the contact time entry is “no significant difference” and the flank marking entry was “no significant difference”. Moreover, the number of bites entry in data set [1] (ca. 1 mg/kg ICV, sixty minutes) is “reduced”. In addition, the latency to bite entry in data set [1] (ca. 1 mg/kg in 1 μl into lateral ventricle, sixty minutes) is on record as “significantly increased”. Moreover, the “latency to find the seed” value in data set [2] is given as “significantly (p<0.05) reduced”.

With `CC(=O)N[C@@H](CC(=O)N[C@@H](CCC(=O)O)C(=O)O)C(=O)O` [beta-NAAG, N-acetyl-beta-aspartyl-glutamic acid], the “estimated concentration in brain extracellular fluid (molar)” value in data set [3] (beta-NAAG 3 ng ICV, FW 304) is 36 nM. Also, the “estimated concentration in brain extracellular fluid” value in data set [3] (beta-NAAG 3 ng in 1 μl ICV, brain ca. 1.2 g, 22% extracellular fluid) was 11 ng/mL. Moreover, the “latency to find the seeds vs saline vehicle” value in data set [4] (3 ng ICV, one hr, five min observation) is listed as “significantly (p<0.001) different”. In addition, in data set [4] (3 ng/μl microinjected, former vehicle animals three days later), the “mean latency to find the seeds” value was 21.8 ± 9.7 s. For the same compound, the “measures of offensive aggression (latency to bite, bites, contact time, flank marking)” value in data set [1] (3 ng ICV, after the seed finding assay) is “no significant differences”. The “blood-brain barrier transport / CNS penetrability” value in data set [5] is “does not readily cross the blood-brain barrier”.
